Reference: patent publication US20250346569A1, “NEW DERIVATIVES FOR TREATING TRPM3 MEDIATED DISORDERS” (Katholieke Universiteit Leuven, priority 2022, published 2025)

Target: T1, mouse TRPM3α2 (mTRPM3) ion channel (Mus musculus, UniProt J9SQF3)
T1 construct: expressed in transfected cells; host or cells: flip-in HEK293
Assay: Monitoring the TRPM3 ion channel driven Ca2+ uptake (Fluo-4 AM assay)
Type: cell-based
Settings: TRPM3 overexpressing flip-in HEK293 cells, channel stimulated with Pregnenolone sulfate (PS) 50 μM
Outline: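 Flp-In HEK293 cells overexpressing mTRPM3α2, loaded with Fluo-4 AM and added to wells holding compound plus 50 μM pregnenolone sulfate in Ca2+-containing Krebs buffer. Fluorescence (ex 485/em 535) read right after cell addition. Inhibition normalised to vehicle and positive-control inhibitor; IC50 derived.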

T1 sequence (J9SQF3 1-1709 isoform J9SQF3-12): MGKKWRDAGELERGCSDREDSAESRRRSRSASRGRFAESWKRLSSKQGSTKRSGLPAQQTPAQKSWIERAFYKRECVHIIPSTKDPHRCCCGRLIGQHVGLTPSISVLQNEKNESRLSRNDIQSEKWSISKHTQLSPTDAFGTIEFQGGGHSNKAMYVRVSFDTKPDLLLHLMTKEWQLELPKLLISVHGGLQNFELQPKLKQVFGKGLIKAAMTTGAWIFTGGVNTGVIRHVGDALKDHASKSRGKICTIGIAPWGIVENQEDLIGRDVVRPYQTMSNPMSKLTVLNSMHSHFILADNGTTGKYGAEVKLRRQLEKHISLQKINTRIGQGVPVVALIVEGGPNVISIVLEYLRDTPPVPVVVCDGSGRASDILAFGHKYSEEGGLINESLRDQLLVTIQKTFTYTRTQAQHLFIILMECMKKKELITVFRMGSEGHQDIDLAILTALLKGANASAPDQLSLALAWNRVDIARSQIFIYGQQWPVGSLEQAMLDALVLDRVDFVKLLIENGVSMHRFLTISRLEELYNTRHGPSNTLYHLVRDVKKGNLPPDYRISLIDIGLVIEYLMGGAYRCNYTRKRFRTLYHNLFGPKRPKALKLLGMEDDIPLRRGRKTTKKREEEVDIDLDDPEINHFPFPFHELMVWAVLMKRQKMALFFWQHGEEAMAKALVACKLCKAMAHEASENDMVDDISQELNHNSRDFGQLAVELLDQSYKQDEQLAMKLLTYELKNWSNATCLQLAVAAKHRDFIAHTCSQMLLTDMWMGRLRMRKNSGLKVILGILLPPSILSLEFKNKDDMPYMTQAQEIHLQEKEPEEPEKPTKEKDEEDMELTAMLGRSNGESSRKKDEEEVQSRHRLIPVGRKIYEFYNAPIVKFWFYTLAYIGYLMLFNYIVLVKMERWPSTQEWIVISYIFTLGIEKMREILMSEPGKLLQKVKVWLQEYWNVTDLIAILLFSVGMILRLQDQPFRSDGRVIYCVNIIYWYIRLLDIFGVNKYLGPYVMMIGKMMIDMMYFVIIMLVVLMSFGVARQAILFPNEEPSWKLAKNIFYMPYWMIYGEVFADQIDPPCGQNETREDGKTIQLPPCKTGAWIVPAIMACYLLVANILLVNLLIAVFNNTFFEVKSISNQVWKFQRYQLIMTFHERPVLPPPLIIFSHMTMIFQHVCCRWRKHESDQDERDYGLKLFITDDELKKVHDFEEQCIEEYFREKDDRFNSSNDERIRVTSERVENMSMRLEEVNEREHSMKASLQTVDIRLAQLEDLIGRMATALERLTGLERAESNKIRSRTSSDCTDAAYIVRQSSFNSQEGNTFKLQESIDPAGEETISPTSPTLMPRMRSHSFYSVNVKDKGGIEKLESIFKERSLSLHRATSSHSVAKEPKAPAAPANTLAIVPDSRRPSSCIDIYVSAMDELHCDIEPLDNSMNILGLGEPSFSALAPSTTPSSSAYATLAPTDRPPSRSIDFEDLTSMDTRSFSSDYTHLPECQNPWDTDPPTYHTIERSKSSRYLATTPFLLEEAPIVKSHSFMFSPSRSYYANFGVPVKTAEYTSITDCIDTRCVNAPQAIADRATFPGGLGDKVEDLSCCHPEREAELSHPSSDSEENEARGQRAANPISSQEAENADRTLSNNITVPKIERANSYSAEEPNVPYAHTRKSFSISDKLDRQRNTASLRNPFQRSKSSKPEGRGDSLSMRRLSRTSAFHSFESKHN

Cc1sc2ccc(OCc3cccnc3C(F)(F)F)cc2c1C(=O)NCC1CCC(=O)N1 (centres unmarked) [Cpd 103, 2-methyl-N-[(5-oxopyrrolidin-2-yl)methyl]-5-{[2-(trifluoromethyl)pyridin-3-yl]methoxy}-1-benzothiophene-3-carboxamide]
IC50: < 1000 nM

Cc1sc2ccc(OCc3ccccc3)cc2c1C(=O)NCc1cccc(O)n1 [Cpd 104, 5-(benzyloxy)-N-[(6-hydroxypyridin-2-yl)methyl]-2-methyl-1-benzothiophene-3-carboxamide]
IC50: > 20000 nM

Cc1sc2ccc(OCc3cccnc3C(F)(F)F)cc2c1C(=O)NCc1cccc(O)n1 [Cpd 105, N-[(6-hydroxypyridin-2-yl)methyl]-2-methyl-5-{[2-(trifluoromethyl)pyridin-3-yl]methoxy}-1-benzothiophene-3-carboxamide]
IC50: < 1000 nM

Cc1sc2ccc(OCc3ccccc3)cc2c1C(=O)NCCN1CCOC1=O [Cpd 106, 5-(benzyloxy)-2-methyl-N-[2-(2-oxo-1,3-oxazolidin-3-yl)ethyl]-1-benzothiophene-3-carboxamide]
IC50: 1000 to 20000 nM

Cc1sc2ccc(OCc3cccnc3C(F)(F)F)cc2c1C(=O)NCCN1CCOC1=O [Cpd 107, 2-methyl-N-[2-(2-oxo-1,3-oxazolidin-3-yl)ethyl]-5-{[2-(trifluoromethyl)pyridin-3-yl]methoxy}-1-benzothiophene-3-carboxamide]
IC50: 1000 to 20000 nM

Cc1sc2ccc(OCc3ccccc3)cc2c1C(=O)O [Cpd 108, 5-(benzyloxy)-2-methyl-1-benzothiophene-3-carboxylic acid]
IC50: < 1000 nM

Cc1sc2ccc(OCc3cccnc3C(F)(F)F)cc2c1C(=O)O [Cpd 109, 2-methyl-5-{[2-(trifluoromethyl)pyridin-3-yl]methoxy}-1-benzothiophene-3-carboxylic acid]
IC50: < 1000 nM

CCOC(=O)c1c(C)sc2ccc(OC)cc12 [Cpd 110, ethyl 5-methoxy-2-methyl-1-benzothiophene-3-carboxylate]
IC50: > 20000 nM

Cc1sc2ccc(OCc3ccccc3)cc2c1C(=O)NCC1(N(C)C)CCCC1 [Cpd 111, 5-(benzyloxy)-N-{[1-(dimethylamino)cyclopentyl]methyl}-2-methyl-1-benzothiophene-3-carboxamide]
IC50: < 1000 nM

CN(C)C1(CNC(=O)c2c(C(F)F)sc3ccc(OCc4ccccc4)cc23)CCCC1 [Cpd 112, 5-(benzyloxy)-2-(difluoromethyl)-N-{[1-(dimethylamino)cyclopentyl]methyl}-1-benzothiophene-3-carboxamide]
IC50: 1000 to 20000 nM

Cc1sc2ccc(OCc3cccnc3C(F)(F)F)cc2c1C(=O)NCC1(N(C)C)CCCC1 [Cpd 113, N-{[1-(dimethylamino)cyclopentyl]methyl}-2-methyl-5-{[2-(trifluoromethyl)pyridin-3-yl]methoxy}-1-benzothiophene-3-carboxamide]
IC50: < 1000 nM

Cc1ncsc1COc1ccc2sc(C)c(C(=O)NCC3(N(C)C)CCCC3)c2c1 [Cpd 114, N-{[1-(dimethylamino)cyclopentyl]methyl}-2-methyl-5-[(4-methyl-1,3-thiazol-5-yl)methoxy]-1-benzothiophene-3-carboxamide]
IC50: < 1000 nM

Cc1sc2ccc(OCc3ccccc3)cc2c1C(=O)NCCN(C)C [Cpd 115, 5-(benzyloxy)-N-[2-(dimethylamino)ethyl]-2-methyl-1-benzothiophene-3-carboxamide]
IC50: 1000 to 20000 nM

CN(C)CCNC(=O)c1c(C(F)F)sc2ccc(OCc3ccccc3)cc12 [Cpd 116, 5-(benzyloxy)-2-(difluoromethyl)-N-[2-(dimethylamino)ethyl]-1-benzothiophene-3-carboxamide]
IC50: 1000 to 20000 nM

Cc1sc2ccc(OCc3cccnc3C(F)(F)F)cc2c1C(=O)NCCN(C)C [Cpd 117, N-[2-(dimethylamino)ethyl]-2-methyl-5-{[2-(trifluoromethyl)pyridin-3-yl]methoxy}-1-benzothiophene-3-carboxamide]
IC50: < 1000 nM

Cc1ncsc1COc1ccc2sc(C)c(C(=O)NCCN(C)C)c2c1 [Cpd 118, N-[2-(dimethylamino)ethyl]-2-methyl-5-[(4-methyl-1,3-thiazol-5-yl)methoxy]-1-benzothiophene-3-carboxamide]
IC50: < 1000 nM

CN1CC(NC(=O)c2c(C(F)F)sc3ccc(OCc4ccccc4)cc23)C(F)(F)C1 (centres unmarked) [Cpd 119, 5-(benzyloxy)-N-(4,4-difluoro-1-methylpyrrolidin-3-yl)-2-(difluoromethyl)-1-benzothiophene-3-carboxamide]
IC50: 1000 to 20000 nM

Cc1sc2ccc(OCc3ccccc3)cc2c1C(=O)NC1CN(C)CC1(F)F (centres unmarked) [Cpd 120, 5-(benzyloxy)-N-(4,4-difluoro-1-methylpyrrolidin-3-yl)-2-methyl-1-benzothiophene-3-carboxamide]
IC50: < 1000 nM

Cc1sc2ccc(OCc3cccnc3C(F)(F)F)cc2c1C(=O)NC1CN(C)CC1(F)F (centres unmarked) [Cpd 121, N-(4,4-difluoro-1-methylpyrrolidin-3-yl)-2-methyl-5-{[2-(trifluoromethyl)pyridin-3-yl]methoxy}-1-benzothiophene-3-carboxamide]
IC50: < 1000 nM

Cc1ncsc1COc1ccc2sc(C)c(C(=O)NC3CN(C)CC3(F)F)c2c1 (centres unmarked) [Cpd 122, N-(4,4-difluoro-1-methylpyrrolidin-3-yl)-2-methyl-5-[(4-methyl-1,3-thiazol-5-yl)methoxy]-1-benzothiophene-3-carboxamide]
IC50: < 1000 nM

Cc1sc2ccc(OCc3ccccc3)cc2c1C(=O)NC1CCN(C)C1 (centres unmarked) [Cpd 123, 5-(benzyloxy)-2-methyl-N-(1-methylpyrrolidin-3-yl)-1-benzothiophene-3-carboxamide]
IC50: < 1000 nM

CN1CCC(NC(=O)c2c(C(F)F)sc3ccc(OCc4ccccc4)cc23)C1 (centres unmarked) [Cpd 124, 5-(benzyloxy)-2-(difluoromethyl)-N-(1-methylpyrrolidin-3-yl)-1-benzothiophene-3-carboxamide]
IC50: 1000 to 20000 nM

Cc1sc2ccc(OCc3cccnc3C(F)(F)F)cc2c1C(=O)NC1CCN(C)C1 (centres unmarked) [Cpd 125, 2-methyl-N-(1-methylpyrrolidin-3-yl)-5-{[2-(trifluoromethyl)pyridin-3-yl]methoxy}-1-benzothiophene-3-carboxamide]
IC50: < 1000 nM

Cc1ncsc1COc1ccc2sc(C)c(C(=O)NC3CCN(C)C3)c2c1 (centres unmarked) [Cpd 126, 2-methyl-5-[(4-methyl-1,3-thiazol-5-yl)methoxy]-N-(1-methylpyrrolidin-3-yl)-1-benzothiophene-3-carboxamide]
IC50: < 1000 nM

Cc1sc2ccc(OCc3ccccc3)cc2c1C(=O)NC1CCN(C)CC1 [Cpd 127, 5-(benzyloxy)-2-methyl-N-(1-methylpiperidin-4-yl)-1-benzothiophene-3-carboxamide]
IC50: 1000 to 20000 nM

CN1CCC(NC(=O)c2c(C(F)F)sc3ccc(OCc4ccccc4)cc23)CC1 [Cpd 128, 5-(benzyloxy)-2-(difluoromethyl)-N-(1-methylpiperidin-4-yl)-1-benzothiophene-3-carboxamide]
IC50: 1000 to 20000 nM

Cc1sc2ccc(OCc3cccnc3C(F)(F)F)cc2c1C(=O)NC1CCN(C)CC1 [Cpd 129, 2-methyl-N-(1-methylpiperidin-4-yl)-5-{[2-(trifluoromethyl)pyridin-3-yl]methoxy}-1-benzothiophene-3-carboxamide]
IC50: < 1000 nM

Cc1ncsc1COc1ccc2sc(C)c(C(=O)NC3CCN(C)CC3)c2c1 [Cpd 130, 2-methyl-5-[(4-methyl-1,3-thiazol-5-yl)methoxy]-N-(1-methylpiperidin-4-yl)-1-benzothiophene-3-carboxamide]
IC50: 1000 to 20000 nM

Cn1ccc(NC(=O)c2c(C(F)F)sc3ccc(OCc4ccccc4)cc23)n1 [Cpd 131, 5-(benzyloxy)-2-(difluoromethyl)-N-(1-methyl-1H-pyrazol-3-yl)-1-benzothiophene-3-carboxamide]
IC50: 1000 to 20000 nM

CNC(=O)c1c(C)sc2ccc(OCc3ccccc3)cc12 [Cpd 134, 5-(benzyloxy)-N,2-dimethyl-1-benzothiophene-3-carboxamide]
IC50: > 20000 nM

CNC(=O)c1c(C(F)F)sc2ccc(OCc3ccccc3)cc12 [Cpd 135, 5-(benzyloxy)-2-(difluoromethyl)-N-methyl-1-benzothiophene-3-carboxamide]
IC50: > 20000 nM

CNC(=O)c1c(C)sc2ccc(OCc3cccnc3C(F)(F)F)cc12 [Cpd 136, N,2-dimethyl-5-{[2-(trifluoromethyl)pyridin-3-yl]methoxy}-1-benzothiophene-3-carboxamide]
IC50: < 1000 nM

CNC(=O)c1c(C)sc2ccc(OCc3scnc3C)cc12 [Cpd 137, N,2-dimethyl-5-[(4-methyl-1,3-thiazol-5-yl)methoxy]-1-benzothiophene-3-carboxamide]
IC50: 1000 to 20000 nM

COc1ncccc1COc1ccc2sc(C)c(C(=O)N[C@@H](C)C(N)=O)c2c1 [Cpd 138, (2S)-2-({5-[(2-methoxypyridin-3-yl)methoxy]-2-methyl-1-benzothiophen-3-yl}formamido)propanamide]
IC50: < 1000 nM

COc1ncccc1COc1ccc2sc(C)c(C(=O)N[C@@H](CO)C(N)=O)c2c1 [Cpd 139, (2S)-3-hydroxy-2-({5-[(2-methoxypyridin-3-yl)methoxy]-2-methyl-1-benzothiophen-3-yl}formamido)propanamide]
IC50: < 1000 nM

COc1ncccc1COc1ccc2sc(C)c(C(=O)N[C@H](C)C(N)=O)c2c1 [Cpd 140, (2R)-2-({5-[(2-methoxypyridin-3-yl)methoxy]-2-methyl-1-benzothiophen-3-yl}formamido)propanamide]
IC50: < 1000 nM

COc1ncccc1COc1ccc2sc(C)c(C(=O)NC(C)(C)C(N)=O)c2c1 [Cpd 141, 2-({5-[(2-methoxypyridin-3-yl)methoxy]-2-methyl-1-benzothiophen-3-yl}formamido)-2-methylpropanamide]
IC50: < 1000 nM

COc1ncccc1COc1ccc2sc(C)c(C(=O)NC3(CO)CC3)c2c1 [Cpd 142, N-[1-(hydroxymethyl)cyclopropyl]-5-[(2-methoxypyridin-3-yl)methoxy]-2-methyl-1-benzothiophene-3-carboxamide]
IC50: 1000 to 20000 nM
